Results from patent US9688637B2, “3-amidobenzamides and uses thereof for increasing cellular levels of A3G and other A3 family members” (Northwestern University, priority 2014, dated 2017).

Columns and labels:
[1] = system: A3G-Luc; test: A3G-Luc luciferase screen in 293T cells stably expressing A3G-Luc; format: cell-based, human; details: 10 μM, 48 hrs, DMSO = 100%
Description: This background led to construction of cell lines to use in a search for compounds that might boost levels of A3s in the HIV target cells of the majority of HIV-infected persons who are non-controllers. The goal is to test a strategy of using such a booster in acute/early infection to prevent the hypothesized decrease of A3G and related A3s in an effort to increase “control” in persons lacking HLA B57/27-associated control. […] 293T and TZM-bl cells were maintained in DMEM (containing 4.5 g/liter glucose, L-glutamine, and sodium pyruvate) medium plus 10% fetal bovine serum, 50 IU/ml penicillin, and 50 μg/ml streptomycin at 37° C. and 5% CO2 throughout the experiments. […]. After collecting viral supernatant, 293T cells were infected with viral particles harboring the A3G-Luc expressing vector and selected with puromycin (0.75 μg/ml) for three days. Ten single cell clones of stable cells were isolated and tested for expression of A3G-Luc protein by both immunoblotting using antibody against A3G and measuring luciferase activity. Expressions in cell lines used for subsequent experiments are depicted in FIG. 2, upper panel. The A3G-Luc fusion protein was sensitive to Vif-mediated degradation (FIG. 3). Similar cells lines stably expressing A3F were constructed with the same methods (not shown).
To screen compounds that can boost A3G levels, 293T cells (25,000 cells per well in 96-well plate) stably expressing A3G-Luc protein or A3G-Luc/Vif proteins were plated. […] After 48 hrs of incubation with compounds culture medium was removed from each well and replaced with 100 μl of Britelite Plus luciferase assay substrate (PerkinElmer). Following 5 min. of incubation at room temperature, 75 μl of each cell lysate was transferred to a 96-well OptiPlate 96 (PerkinElmer) and luminescence was measured in a VICTOR X2 Multilabel Reader (PerkinElmer). Relative activity of compounds for their boosting capability A3G-Luc activity was calculated by plotting DMSO-treated A3G-Luc or A3G-Luc/Vif cells as 100%. Cellular cytotoxicity was measured by counting number of cells after 48 hrs of incubation with compounds compared to DMSO treated cells.

[2] = system: A3G-Luc/Vif; test: A3G-Luc/Vif luciferase screen in 293T cells stably co-expressing A3G-Luc and HIV-1 Vif; format: cell-based, human; details: 10 μM, 48 hrs, DMSO = 100%
Experimental: FIG. 6. 293T cell clone #6 stably co-expressing A3G-Luciferase fusion protein together with HIV-1 Vif was used. Small molecule compounds were tested for their effects on stability of A3G and inhibition of Vif activity against A3G by measuring luciferase activity, relative to treatment with control DMSO only. The relative % luciferase activity was higher after treatment with NU compounds than DMSO.
[…]. After sorting, expression of both A3G-Luc and Vif was confirmed by immunoblotting using antibody against both A3G and Vif.
To screen compounds that can boost A3G levels, 293T cells (25,000 cells per well in 96-well plate) stably expressing A3G-Luc protein or A3G-Luc/Vif proteins were plated. After 24 hrs post plating culture medium was replaced with 100 μl of new medium containing either DMSO as a control or various compounds (10 μM concentration). After 48 hrs of incubation with compounds culture medium was removed from each well and replaced with 100 μl of Britelite Plus luciferase assay substrate (PerkinElmer). Following 5 min. of incubation at room temperature, 75 μl of each cell lysate was transferred to a 96-well OptiPlate 96 (PerkinElmer) and luminescence was measured in a VICTOR X2 Multilabel Reader (PerkinElmer). Relative activity of compounds for their boosting capability A3G-Luc activity was calculated by plotting DMSO-treated A3G-Luc or A3G-Luc/Vif cells as 100%. Cellular cytotoxicity was measured by counting number of cells after 48 hrs of incubation with compounds compared to DMSO treated cells.

| SMILES | A3G-Luc Activity (% of Relative Light Units compared to DMSO treated control) [1] [%] | Vif-A3G-Luc Activity (% of RLUs compared to DMSO treated control) [2] [%] |
| --- | --- | --- |
| COc1ccc(C(=O)Nc2ccc3c(c2)OCO3)cc1NC(=O)C(C)C [NU-50] | 115 | 145 |
| COc1ccc(C(=O)Nc2ccc(Cl)c(Cl)c2)cc1NC(=O)c1ccc2c(c1)OCO2 [NU-303] | 90 | 71 |
| COc1ccc(C(=O)Nc2ccc(Cl)c(Cl)c2)cc1NC(=O)C1CC1 [NU-304] | 124 | 138 |
| COc1ccc(C(=O)Nc2ccc(Cl)c(Cl)c2)cc1NC(=O)C1CCOCC1 [NU-305] | 121 | 109 |
| COc1ccc(C(=O)Nc2ccc(Cl)c(Cl)c2)cc1NC(=O)c1ccncc1 [NU-306] | 96 | 84 |
| COc1ccc(C(=O)Nc2ccc(Cl)c(Cl)c2)cc1NC(=O)c1cccnc1 [NU-307] | 102 | 91 |
| COc1ccc(C(=O)Nc2ccc(Cl)c(Cl)c2)cc1NC(=O)Cc1ccccc1 [NU-308] | 92 | 113 |
| COc1ccc(C(=O)Nc2ccc(Cl)c(Cl)c2)cc1NC(=O)c1ccccc1 [NU-309] | 100 | 94 |
| COc1ccc(C(=O)Nc2ccc(Cl)c(Cl)c2)cc1NC(=O)CC(C)C [NU-452] | 140 | 110 |
| COc1ccc(C(=O)Nc2ccc(Cl)c(Cl)c2)cc1NC(=O)CC1CCCC1 [NU-453] | 169 | 95 |
| COc1ccc(C(=O)Nc2ccc(Cl)c(Cl)c2)cc1NC(=O)CC1CCCCC1 [NU-454] | 86 | 84 |
| COc1ccc(C(=O)Nc2ccc(Cl)c(Cl)c2)cc1NC(=O)C1CCCC1 [NU-455] | 188 | 131 |
| CCC(C)C(=O)Nc1cc(C(=O)Nc2ccc(Cl)c(Cl)c2)ccc1OC (centres unmarked) [NU-456] | 148 | 113 |
| CCC(C)(C)C(=O)Nc1cc(C(=O)Nc2ccc(Cl)c(Cl)c2)ccc1OC [NU-457] | 120 | 93 |
| COc1ccc(C(=O)Nc2ccc(Cl)c(Cl)c2)cc1NC(=O)C1C2CC3CC(C2)CC1C3 (centres unmarked) [NU-459] | 106 | 69 |
| COc1ccc(C(=O)Nc2ccc(Cl)c(Cl)c2)cc1NC(=O)OC(C)C [NU-461] | 124 | 70 |

| SMILES | A3G-Luc Activity (% of Relative Light Units compared to DMSO treated control) [1] [%] | Vif-A3G-Luc Activity (% of RLUs compared to DMSO treated control) [2] [%] |
| --- | --- | --- |
| COc1ccc(C(=O)Nc2ccc(Cl)c(Cl)c2)cc1NS(=O)(=O)C1CC1 [NU-469] | 100 | 82 |
| COc1ccc(C(=O)Nc2ccc(Cl)c(Cl)c2)cc1NS(=O)(=O)C1CCC1 [NU-470] | 100 | 85 |
| COc1ccc(C(=O)Nc2ccc(Cl)c(Cl)c2)cc1NC(=O)N1CCCCC1 [NU-473] | 110 | 84 |
| COc1ccc(C(=O)Nc2ccc(Cl)c(Cl)c2)cc1NC(=O)CC(C)(C)C [NU-474] | 105 | 71 |
| COc1ccc(C(=O)Nc2ccncc2)cc1NC(=O)C(C)C [NU-565] | 66 | 55 |
| COc1ccc(C(=O)NCc2ccccc2)cc1NC(=O)C(C)C [NU-566] | 106 | 80 |
| COc1ccc(C(=O)NCc2ccc(F)cc2)cc1NC(=O)C(C)C [NU-567] | 93 | 76 |
| COc1ccc(CNC(=O)c2ccc(OC)c(NC(=O)C(C)C)c2)cc1 [NU-568] | 96 | 87 |
| COc1ccc(C(=O)NCc2ccncc2)cc1NC(=O)C(C)C [NU-569] | 98 | 85 |
| COc1ccc(C(=O)N2CCc3ccccc3C2)cc1NC(=O)C(C)C [NU-570] | 96 | 87 |
| COc1ccc(C(=O)Nc2ccc(F)c(F)c2)cc1NC(=O)C(C)C [NU-571] | 116 | 104 |
| COc1ccc(C(=O)Nc2ccc(OC)c(OC)c2)cc1NC(=O)C(C)C [NU-572] | 98 | 91 |
| COc1ccc(C(=O)NC2CCCCC2)cc1NC(=O)C(C)C [NU-573] | 117 | 80 |
| CCCCOc1ccc(C(=O)Nc2ccc(Cl)c(Cl)c2)cc1NC(=O)C1CCC1 [NU-614] | 96 | 99 |
| CCCCOc1ccc(C(=O)Nc2ccc(Cl)c(Cl)c2)cc1NC(=O)CC1CC1 [NU-615] | 102 | 105 |
